In patent publication US10231960B2, “Methylphenidate-prodrugs, processes of making and using the same” (KemPharm, Inc., priority 2011, dated 2019):
Values after ≈ are worked out from the molar mass of the structure shown.

Tests used:
[1] = Oral PK in rats: plasma methylphenidate released from conjugates vs unconjugated methylphenidate (LC-MS/MS); details: oral gavage; for Tmax: Tmax (Methylphenidate)
Description: Exemplary prodrug conjugates of the present technology were synthesized as described above. The oral plasma concentrations of methylphenidate released from nicotinate-CH2OCO-MPH, phosphate-CH2OCO-MPH, gallate-CH2OCO-MPH, lactate-CH2OCO-MPH, MPH-CO2CH2-nicotinoyl-Asp, MPH-CO2CH2-nicotinoyl-Val, MPH-CO2CH2-nicotinoyl-Gly-Ala, Val-6-aminohexanoate-CH2OCO-MPH, MPH-CO2CH2-nicotinamide, 6-aminohexanoate-CH2OCO-MPH, MPH-CO2CH2-nicotinoyl-O^tBu, MPH-CO2CH2-nicotinate, MPH-CO2CH2-nicotinoyl-OEL MPH-CO2CH2-pyridine, isonicotinate-CH2OCO-MPH and phosphate-(p-salicylate)-CH2OCO-MPH were compared with unconjugated methylphenidate after oral administration in rats. Rats were dosed with oral solutions of the conjugated prodrugs in an amount equivalent to 2 mg/kg of methylphenidate free base and compared to an equimolar solution of unconjugated methylphenidate hydrochloride.
The plasma concentrations of methylphenidate were measured by LC-MS/MS over time.
The dosing vehicles for the PK experiments are as follows: FIG. 13—10% Tween in water. FIGS. 14 and 15—water. FIG. 16—conjugate in 50% PEG-400 in water; control: water. FIG. 17—50% PEG-400 in water. FIG. 18—10% Tween in water. FIGS. 19-27—water. FIGS. 28 and 29—phosphate buffered saline (PBS). FIG. 30—10% Tween in water.

[2] = Water solubility at ambient temperature; assay type: physicochemical
Experimental: The water solubility of phosphate-CH2OCO-methylphenidate and unconjugated methylphenidate was determined at ambient temperature and the results are found in Table 5.

[3] = water, at 32° C.; cited from earlier work
[4] = Intranasal PK in rats: plasma methylphenidate released from conjugates vs unconjugated methylphenidate; assay type: in vivo; details: rat, inhaled or intranasal, unconjugated methylphenidate comparator, dosed intranasally
Description: (§1) FIGS. 14 and 15—water. […] FIG. 17—50% PEG-400 in water. FIG. 18—10% Tween in water. FIGS. 19-27—water. FIGS. 28 and 29—phosphate buffered saline (PBS). FIG. 30—10% Tween in water.

[5] = Intravenous PK in rats: plasma methylphenidate released from conjugates vs unconjugated methylphenidate; assay type: in vivo; details: rat, unconjugated methylphenidate comparator, dosed intravenously
Description: as §1

[6] = conjugate relative to unconjugated methylphenidate
[7] = plasma methylphenidate released from conjugate, equivalent to 2 mg/kg methylphenidate free base
[8] = conjugate relative to methylphenidate hydrochloride from combined data of six studies
[9] = calculated from combined data of three studies (footnote a)
[10] = read-out: AUC0-4 h (Methylphenidate)

Compound COC(=O)C(c1ccccc1)C1CCCCN1C(=O)OCOC(=O)C(C)O (centres unmarked) [Lactate-CH2OCO-MPH, lactate-CH2OCO-MPH] has an AUC-% [1, 6] of 73%, a Cmax-% [1, 6] of 75% and a Tmax-% [1, 6] of 120%. The “AUC0-4 h (Conjugate)” value [1, 7] was 132.3 ng·h/mL, the “Cmax (Conjugate)” value [1, 7] was 122.5 ng/mL and the “Tmax (Conjugate)” value [1, 7] was 18 min.

With COC(=O)C(c1ccccc1)C1CCCCN1C(=O)OCOP(=O)(O)O (centres unmarked) [Phosphate-CH2OCO-MPH, phosphate-CH2OCO-MPH] the “Solubility in Water” value [2] was 432 mg/mL, the “Water solubility relative to the unconjugated form” value ([2]; vs unconjugated methylphenidate hydrochloride) was “about 2.5 times” and the AUC-% [1, 8] was 146%. It also gave a Cmax-% [1, 8] of 140%, a Tmax-% [1, 8] of 88% and an AUC-% [1, 6] of 185%. For the same compound, the Cmax-% [1, 6] was 144%, the Tmax-% [1, 6] was 100% and the “AUC0-4 h (Conjugate)” value [1, 9] was 154.5 ng·h/mL. For the same compound, the “Cmax (Conjugate)” value [1, 9] was 158.9 ng/mL, the “Tmax (Conjugate)” value [1, 9] was 15 min and the “AUC0-4 h (Conjugate)” value [1, 7] was 110.8 ng·h/mL. For the same compound, the “Cmax (Conjugate)” value [1, 7] was 110.8 ng/mL and the “Tmax (Conjugate)” value [1, 7] was 15 min.

COC(=O)C(c1ccccc1)C1CCCCN1C(=O)OCOC(=O)CCCCCNC(=O)C(N)C(C)C (centres unmarked) [Val-6-aminohexanoate-CH2OCO-MPH] showed an AUC-% [1, 6] of 58%, a Cmax-% [1, 6] of 59% and a Tmax-% [1, 6] of 83%. The “AUC0-4 h (Conjugate)” value [1, 7] was 44.9 ng·h/mL, the “Cmax (Conjugate)” value [1, 7] was 52.7 ng/mL and the “Tmax (Conjugate)” value [1, 7] was 15 min.

With COC(=O)C(c1ccccc1)C1CCCCN1C(=O)OCOC(=O)CCCCCN (centres unmarked) [6-Aminohexanoate-CH2OCO-MPH, (6-aminohexanoyloxy)methyl methylphenidate-1-carboxylate] the AUC-% [1, 6] was 82%, the Cmax-% [1, 6] was 109% and the Tmax-% [1, 6] was 88%. The “AUC0-4 h (Conjugate)” value [1, 7] was 145.6 ng·h/mL, the “Cmax (Conjugate)” value [1, 7] was 173.5 ng/mL and the “Tmax (Conjugate)” value [1, 7] was 21 min.

In the case of COC(=O)C(c1ccccc1)C1CCCCN1 (centres unmarked) [Methylphenidate, methyl phenyl(piperidin-2-yl)acetate], the “Solubility data found in the literature” value [3] is given as 191 mg/mL (≈ 819 mM), the solubility ([2]; water) is given as 169 mg/mL (≈ 724 mM) and the Cmax [4] is given as 2210 ng/mL. It also gave a Tmax [4] of 6.96 min, an AUC(0-t) [4, 10] of 1050 ng·h/mL and a Cmax [5] of 296 ng/mL. The Tmax [5] was 31 min, the AUC(0-t) [5, 10] was 320 ng·h/mL and the AUC(0-t) ([1]; rat, plasma, po, 2 mg/kg, AUC0-4 h (Methylphenidate), methylphenidate hydrochloride, combined data of six studies (footnotes a, b)) was 106 ng·h/mL. For the same compound, the Cmax ([1]; rat, plasma, po, 2 mg/kg, Cmax (Methylphenidate), methylphenidate hydrochloride, combined data of six studies (footnotes a, b)) was 114 ng/mL, the Tmax ([1]; rat, plasma, po, 2 mg/kg, methylphenidate hydrochloride, combined data of six studies (footnotes a, b)) was 17 min and the Tmax ([1]; rat, plasma, po, 2 mg/kg, unconjugated methylphenidate hydrochloride comparator of the same row, equimolar) was 15 min.
